The values that follow come from ChEMBL document CHEMBL1201862, “PubChem BioAssay data set” (2004).

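Growth conditions: 96-well plates. Treatment: test compound, 48 hours, 5 concentrations. Analysis: linear interpolation between bracketing concentrations; unreached endpoints set to highest concentration. Here, GI50 denotes the concentration required for 50% inhibition of growth.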 The source made the active and inactive calls. Cut-off read from the data, not from the text of the source: active = GI50 up to about 1.1 µM and inactive = higher. Where only a bound is given, the exact number is not on record here.

Some test systems named below: HCT-15; NCI-H23; A549; SF-539; HOP-62; SNB-19; RXF 393; K562; RPMI-8226; NCI-H522; A498; LOX IMVI; SK-MEL-5; CAKI-1; HT-29; SNB-75; NCI-H226; SN12C; OVCAR-8; COLO 205.
Holding throughout (test): DTP human tumour cell line panel, 48 h

For `O=c1ccc2ccc(CBr)cc2o1`, the 50% growth inhibitory concentration (GI50) with HCT-15 is 1.87 µM; with NCI-H23 it was 2.92 µM (inactive); with A549, 15.5 µM (inactive); in the test with SF-539, 3.97 µM (inactive); in the test on HOP-62, 17 µM (inactive); in the test with SNB-19, 12.4 µM (inactive). The GI50 in the test on RXF 393 was 1.94 µM (inactive); in the test with K562 it was 2.18 µM (inactive); in the test with RPMI-8226, 1.61 µM (inactive); in the test with NCI-H522 it was 1.26 µM (inactive); in the test with A498, 16 µM (inactive); with LOX IMVI, 1.5 µM (inactive). Besides, the GI50 in the test on SK-MEL-5 is 2.79 µM (inactive); in the test on CAKI-1 it was 1.55 µM (inactive); with HT-29, 2.48 µM (inactive); with SNB-75, > 100 µM (inactive); in the test on NCI-H226, 10.7 µM (inactive); in the test on SN12C, 2.69 µM (inactive). In addition, in the test with OVCAR-8, the GI50 was 2.05 µM (inactive).
On to `COc1cc2c(cc1O)N=C[C@@H]1CC[C@@H](O)N1C2=O.COc1cc2c(cc1O)N=C[C@@H]1CC[C@H](O)N1C2=O`, for which the GI50 was 0.74 µM with HCT-15; 0.916 µM (active) with NCI-H23; 5.6 µM (inactive) in the test on A549; 0.726 µM (active) in the test on SF-539; 0.631 µM (active) with HOP-62; 1.4 µM (inactive) with SNB-19. For the same compound, the GI50 in the test with RXF 393 was 0.281 µM (active); with K562, 0.849 µM (active); in the test with RPMI-8226, 0.527 µM (active); in the test on NCI-H522 it was 0.159 µM (active); in the test on A498 it was 0.43 µM (active); in the test with LOX IMVI, 0.473 µM (active). The GI50 with SK-MEL-5 is 0.583 µM (active); in the test with COLO 205, 0.738 µM (active); with CAKI-1, 0.607 µM (active); with HT-29 it was 2.17 µM (inactive); in the test on SNB-75, 1.02 µM (active); in the test on NCI-H226, 0.525 µM (active). In addition, the values for the GI50 in the test on SN12C and in the test on OVCAR-8 were 1.04 µM (active) and 1.05 µM (active), respectively.
`COc1ccc2nc(-n3c(/C=C/c4ccccc4O)nc4ccccc4c3=O)sc2c1`: the 50% growth inhibitory concentration (GI50) in the test with HCT-15 was 60.1 µM; with NCI-H23 it was 47.6 µM (inactive); with A549 it was 39.4 µM (inactive); in the test with HOP-62, > 100 µM (inactive); in the test on SNB-19 it was 35.5 µM (inactive); in the test on RXF 393, 71.6 µM (inactive). In addition, the GI50 in the test on K562 was 20.4 µM (inactive); in the test with RPMI-8226, 24.9 µM (inactive); with NCI-H522, 58.1 µM (inactive); with A498 it was 29.9 µM (inactive); in the test with LOX IMVI, 69.5 µM (inactive); with SK-MEL-5, 19.7 µM (inactive). For the same compound, the GI50 with COLO 205 is > 100 µM (inactive); in the test on CAKI-1, 46 µM (inactive); with HT-29, 50.2 µM (inactive); in the test on SNB-75, 72.1 µM (inactive); with NCI-H226, 36 µM (inactive); in the test with OVCAR-8, > 100 µM (inactive).
With `C=C1C(=O)O[C@@H]2[C@H](O)[C@@H](C)[C@@H]3C=CC(=O)[C@@]3(C)[C@@H](OC(=O)/C(C)=C/C)[C@H]12`, the concentration for 50% growth inhibition (GI50) with HCT-15 was 0.377 µM; in the test with NCI-H23, 0.845 µM (active); in the test on A549, 1.98 µM (inactive); in the test with SF-539 it was 0.468 µM (active); with HOP-62, 7.46 µM (inactive); with SNB-19, 2.77 µM (inactive). Moreover, the 50% growth inhibitory concentration (GI50) was 0.63 µM (active) in the test with RXF 393; 0.483 µM (active) with K562; 0.344 µM (active) in the test with RPMI-8226; 0.0889 µM (active) in the test on NCI-H522; 1.32 µM (inactive) in the test with A498; 0.869 µM (active) in the test with LOX IMVI. The GI50 was 1.18 µM (inactive) in the test on SK-MEL-5; 0.344 µM (active) with COLO 205; 0.782 µM (active) in the test with CAKI-1; 0.745 µM (active) in the test on HT-29; 2.03 µM (inactive) in the test with SNB-75; 1.12 µM (inactive) in the test on NCI-H226. Besides, the results for the GI50 with SN12C and in the test with OVCAR-8 were 0.465 µM (active) and 0.723 µM (active), respectively.
As to `Nc1nc(Cl)nc2c1ncn2C1CC(O)C(CO)O1` (configuration not stated), the concentration for 50% growth inhibition (GI50) in the test with HCT-15 was 45.9 µM; in the test on NCI-H23 it was 0.592 µM (active); with A549 it was 4.26 µM (inactive); in the test with SF-539 it was 20.3 µM (inactive); in the test with HOP-62, 0.33 µM (active); with SNB-19, 1.47 µM (inactive). In addition, the GI50 in the test with RXF 393 was 24.9 µM (inactive); in the test with K562, 13.4 µM (inactive); in the test with RPMI-8226 it was 54.2 µM (inactive); with NCI-H522, 25.5 µM (inactive); in the test on A498, 2.95 µM (inactive); in the test with LOX IMVI it was 3.62 µM (inactive). Besides, the GI50 with SK-MEL-5 was 5.12 µM (inactive); in the test with COLO 205, 33.4 µM (inactive); in the test with CAKI-1 it was 0.665 µM (active); with HT-29, 19.3 µM (inactive); in the test with SNB-75, 36.6 µM (inactive); in the test on NCI-H226, 16.7 µM (inactive). Besides, the values for the concentration for 50% growth inhibition (GI50) in the test with SN12C and in the test with OVCAR-8 were 0.738 µM (active) and 0.097 µM (active), respectively.
As for `O/N=C\c1cc(O)c(O)c(/C=N/O)c1`, the GI50 in the test on HCT-15 is 34.9 µM; in the test with NCI-H23 it was 71 µM (inactive); in the test on A549, 25.2 µM (inactive); in the test with SF-539, 34.4 µM (inactive); in the test with HOP-62, 29.4 µM (inactive); with SNB-19 it was 89.5 µM (inactive). For the same compound, the GI50 with RXF 393 was 25.6 µM (inactive); in the test on K562, 36 µM (inactive); in the test on RPMI-8226 it was 11.8 µM (inactive); in the test on NCI-H522, 8.73 µM (inactive); with A498, 69.3 µM (inactive); in the test on LOX IMVI, 47.8 µM (inactive). Moreover, the GI50 in the test on SK-MEL-5 was 33.2 µM (inactive); in the test with COLO 205, 34.4 µM (inactive); in the test with CAKI-1 it was 28.6 µM (inactive); with HT-29, 59.3 µM (inactive); with SNB-75 it was > 100 µM (inactive); in the test with NCI-H226, 32.9 µM (inactive). Besides, the values for the GI50 in the test with SN12C and in the test with OVCAR-8 were 27.2 µM (inactive) and 29 µM (inactive), respectively.
As to `CC(C)(C)c1ccc2c(c1)OP1(Oc3c(Cl)cc(Cl)c4cccnc34)(O2)Oc2ccc(C(C)(C)C)cc2O1`, the concentration for 50% growth inhibition (GI50) in the test with HCT-15 was 4.53 µM; in the test with NCI-H23, 6.38 µM (inactive); with A549 it was 6 µM (inactive); with SF-539 it was 7.78 µM (inactive); in the test with HOP-62 it was 5.01 µM (inactive); in the test on SNB-19 it was 7.53 µM (inactive). In addition, the GI50 was 13.3 µM (inactive) with RXF 393; 3.94 µM (inactive) with K562; 3.59 µM (inactive) in the test on RPMI-8226; 2.9 µM (inactive) in the test on NCI-H522; 14.1 µM (inactive) in the test with A498; 5.55 µM (inactive) in the test with LOX IMVI. Besides, the GI50 in the test with SK-MEL-5 was 8.51 µM (inactive); in the test with COLO 205, 13.4 µM (inactive); with CAKI-1, 3.78 µM (inactive); with HT-29 it was 5.2 µM (inactive); with SNB-75, 15.5 µM (inactive); in the test on NCI-H226, 8.97 µM (inactive). The GI50 with SN12C was 11 µM (inactive); in the test with OVCAR-8 it was 5.31 µM (inactive).
